Earlier results in patent US20190015503A1, “METHODS FOR THE PROGNOSIS AND TREATMENT OF ENDOMETRIAL CARCINOMA” (INSERM (INSTITUT NATIONAL DE LA SANTÉ DE LA RECHERCHE …, priority 2015, published 2019).

System: prostate cancer cells
Conditions: dose- and time-dependent

COc1cccc(OC)c1-c1cc(C(=O)NC2(C(=O)O)C3CC4CC(C3)CC2C4)nn1-c1ccnc2cc(Cl)ccc12 (stereo not shown) [SR48692]
radio-sensitization (increasing apoptotic cell death and decreasing clonogenic survival): radio-sensitized prostate cancer cells in a dose- and time-dependent manner
